Data as given in PubChem BioAssay (NCI).
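Cells were grown in 96-well plates and exposed to each compound for 48 hours at five concentrations; endpoints were interpolated linearly between bracketing concentrations, or set to the highest concentration if not reached. TGI: concentration producing complete growth inhibition.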 Where a SMILES comes first, the peptide text is derived from it. Bridges are numbered along the chain shown (N, C = ends). The star is where a group is joined. Cbz = O=C(OCc1ccccc1)*

What was measured:
Assay in all cases: inhibition of tumour cell growth, NCI panel, 48 h
NCI-H23 lung = system: NCI-H23 lung
NCI-H460 lung = system: NCI-H460 lung
COLO 205 colon = system: COLO 205 colon
KM12 colon = system: KM12 colon
IGROV1 ovarian = system: IGROV1 ovarian
UACC-257 melanoma = system: UACC-257 melanoma
T-47D breast = system: T-47D breast
M14 melanoma = system: M14 melanoma
EKVX NSCLC = system: EKVX NSCLC
RXF 393 renal = system: RXF 393 renal

Row | SMILES | TGI (NCI-H23 lung) [µM] | TGI (NCI-H460 lung) [µM] | TGI (COLO 205 colon) [µM] | TGI (KM12 colon) [µM] | TGI (IGROV1 ovarian) [µM] | TGI (UACC-257 melanoma) [µM] | TGI (T-47D breast) [µM] | TGI (M14 melanoma) [µM] | TGI (EKVX NSCLC) [µM] | TGI (RXF 393 renal) [µM]
1 | C/C=C/[C@H]1O[C@@](O)([C@@H](C)[C@H](O)[C@H](C)[C@H]2OC(=O)/C(OC)=C/C(C)=C/[C@@H](C)[C@@H](O)[C@@H](CC)[C@@H](O)[C@H](C)C/C(C)=C/C=C/[C@@H]2OC)C[C@H](OC2CC(O)C(OC(N)=O)C(C)O2)[C@@H]1C (stereo not given in full) | 26.7 | 14.4 | 4.91 | 17.4 | 20.9 | 0.568 | 2.12 | 0.0387 | 20.5 | 37
2 | COc1cc(/C=C2\Cc3cc(OC)c(OC)cc3C2=O)cc(OC)c1 | > 56.9 | 74.7 | > 100 | > 100 | > 100 | > 100 | > 100 | > 100 | > 100 | 57.1
3 | COc1nc(OC)nc(-c2cccc(F)c2)n1 | 29.7 | 32.9 | 37.8 | 31.7 | 31.8 | 30.7 | 33.8 | 36.4 | 18.6 | 35
4 | CC(=O)CC(C)(C)NC(=O)[C@@]1(O)CC[C@H]2[C@@H]3CCC4=CC(=O)CC[C@@H]4[C@H]3CC[C@@]21C | > 100 | > 100 | > 100 | > 100 | > 100 | > 100 | > 100 | > 100 | > 100 | > 100
5 | OC(CCN1CCN(CCOC(c2ccccc2)c2ccccc2)CC1)c1ccc(Br)cc1 (stereo not given) | 28 | 26 | 3.38 | 36.9 | 24.7 | 12.6 | 33.4 | 11.2 | 23.5 | 22.9
6 | COC(=O)C1CCCCNC(=O)CCC(NC(=O)OCc2ccccc2)C(=O)N1 (stereo not drawn) (Cbz-Glu-Lys-OMe; lactam 1-2; configuration not given here) | > 100 | > 100 | > 100 | > 100 | > 100 | > 100 | > 100 | > 100 | > 100 | > 100
7 | COc1cc(OC)c2c(O)c(S(=O)(=O)c3ccc(C)cc3)c(=O)oc2c1 | > 100 | > 100 | > 100 | > 100 | > 100 | > 100 | > 100 | > 100 | > 100 | > 100
8 | CC(NNC(=O)c1ccncc1)c1ccc(Cl)c(Cl)c1 (stereo not given) | > 100 | > 100 | > 100 | > 100 | > 100 | > 100 | > 100 | > 100 | > 100 | > 100
9 | CCOC(=O)C(NC(=O)CC)(Nc1ccc(S(=O)(=O)Nc2nc(C)cc(C)n2)cc1)C(F)(F)F (stereo not given) | > 100 | > 100 | > 100 | > 100 | > 100 | > 100 | > 100 | > 100 | > 100 | > 100
10 | COc1cc2c(cc1C)NC(=O)/C2=C\c1ccncc1 | 9.28 | 41.7 | > 100 | 12.5 | 6.94 | 26.7 | 16.8 | 12.9 | 25.8 | 13.4
11 | ONC1=Nc2ccccc2OCc2cc(Br)c(Br)cc2COc2ccccc2N=C1NO | 44.5 | 30.2 | 21.5 | > 46 | > 37.7 | 56.6 | 31.1 | > 54.2 | 47.2 | 47.9
12 | S=C(N/N=C\c1ccccn1)N(Cc1ccccn1)Cc1ccccn1 | 14.5 | > 44 | 23.9 | 23.5 | 11.2 | 39.5 | > 40.4 | 43.7 | 17.2 | 32.2
13 | N#CC12C(=O)N3C(=NC(c4ccccc4)NC3c3ccccc3)C1(C#N)C(c1ccccc1)NC1=C2CCCC1 (stereo not given) | > 100 | > 100 | > 100 | > 100 | > 100 | > 100 | > 100 | > 100 | > 100 | > 100
14 | CN(CCc1ccc(Cl)c(Cl)c1)CCN(C)CCN1CCCC1 | 38.3 | 25.7 | 5.3 | 24.8 | 43.7 | 5.04 | 44.6 | 9.88 | 35.5 | 26.6
15 | CCOC(=O)/C(C#N)=C(/NNc1ccccc1)c1ccncc1C(=O)O | > 100 | > 100 | 22.5 | > 100 | > 100 | > 100 | > 100 | > 100 | > 100 | > 100
16 | Cc1cc(O)ccc1C1(c2ccc(F)cc2)OC(=O)c2ccccc21 (stereo not given) | 3.27 | 29 | 11.2 | 7.3 | 10.2 | 26.7 | 0.974 | 27.1 | 12.6 | 3.33
